Measured values published in ChEMBL document CHEMBL1201862, “PubChem BioAssay data set” (2004).
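Five concentrations, 48 hours, 96-well plates. Abbreviation: GI50, concentration required for 50% inhibition of growth.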 Calls of active or inactive are those of the source. Cut-off read from the data, not from the text of the source: active = GI50 up to about 1.1 µM and inactive = higher.

Tests used:
Assay in all cases: NCI-60 cell line screen, 48 h
MCF7 = test system: MCF7
OVCAR-5 = test system: OVCAR-5
RXF 393 = test system: RXF 393
DU-145 = test system: DU-145
HCC 2998 = test system: HCC 2998
SR = test system: SR
SK-OV-3 = test system: SK-OV-3
CAKI-1 = test system: CAKI-1
ACHN = test system: ACHN
A549 = test system: A549
SF-539 = test system: SF-539
OVCAR-3 = test system: OVCAR-3
SK-MEL-5 = test system: SK-MEL-5
HCT-116 = test system: HCT-116
MDA-MB-231 = test system: MDA-MB-231
MDA-MB-435 = test system: MDA-MB-435
SW-620 = test system: SW-620
CCRF-CEM = test system: CCRF-CEM
A498 = test system: A498

## CCOC(=O)C(C(=S)Nc1ccccc1)c1nn2c(=O)cc(C)nc2s1 (configuration not stated)
MCF7
  GI50: 19.4 µM (inactive)
OVCAR-5
  GI50: 35.3 µM (inactive)
RXF 393
  GI50: 39.1 µM (inactive)
DU-145
  GI50: 36.3 µM (inactive)
HCC 2998
  GI50: 25.1 µM (inactive)
SR
  GI50: 25.1 µM (inactive)
SK-OV-3
  GI50: 23.3 µM (inactive)
CAKI-1
  GI50: 20.1 µM (inactive)
ACHN
  GI50: 20.5 µM (inactive)
A549
  GI50: 37.4 µM (inactive)
SF-539
  GI50: 22.9 µM (inactive)
OVCAR-3
  GI50: 24.5 µM (inactive)
SK-MEL-5
  GI50: 23.1 µM (inactive)
HCT-116
  GI50: 20.8 µM (inactive)
MDA-MB-231
  GI50: 31.8 µM (inactive)
MDA-MB-435
  GI50: 20.9 µM (inactive)
SW-620
  GI50: 46.7 µM (inactive)
CCRF-CEM
  GI50: 33.8 µM (inactive)

## C/C(=N\NC(=S)N1CCCCCC1)c1cccc2cccnc12
MCF7
  GI50: 0.984 µM (active)
OVCAR-5
  GI50: > 19.9 µM (inactive)
RXF 393
  GI50: > 26.4 µM (inactive)
A498
  GI50: 5.64 µM (inactive)
DU-145
  GI50: 2.95 µM (inactive)
HCC 2998
  GI50: 2.76 µM (inactive)
SR
  GI50: < 0.01 µM (active)
SK-OV-3
  GI50: 3.77 µM (inactive)
CAKI-1
  GI50: 0.355 µM (active)
ACHN
  GI50: 0.375 µM (active)
A549
  GI50: 1.13 µM (inactive)
SF-539
  GI50: 0.845 µM (active)
OVCAR-3
  GI50: 0.0203 µM (active)
HCT-116
  GI50: 0.634 µM (active)
MDA-MB-231
  GI50: 2.12 µM (inactive)
MDA-MB-435
  GI50: 1.71 µM (inactive)
SW-620
  GI50: 1.55 µM (inactive)
CCRF-CEM
  GI50: < 0.01 µM (active)

## N#Cc1ccc(C(O)C(F)(F)c2nc3ccccc3o2)cc1 (configuration not stated)
MCF7
  GI50: 46.1 µM (inactive)
RXF 393
  GI50: > 100 µM (inactive)
DU-145
  GI50: 35.7 µM (inactive)
HCC 2998
  GI50: > 100 µM (inactive)
SR
  GI50: 86.9 µM (inactive)
SK-OV-3
  GI50: > 100 µM (inactive)
CAKI-1
  GI50: 31 µM (inactive)
ACHN
  GI50: 83.9 µM (inactive)
SF-539
  GI50: 43.9 µM (inactive)
SK-MEL-5
  GI50: 37.2 µM (inactive)
HCT-116
  GI50: 92.3 µM (inactive)
MDA-MB-231
  GI50: 18.9 µM (inactive)
MDA-MB-435
  GI50: 44.8 µM (inactive)
SW-620
  GI50: > 100 µM (inactive)
CCRF-CEM
  GI50: 45.5 µM (inactive)

## CNc1ccccc1S(=O)(=O)c1ccccc1[N+](=O)[O-]
MCF7
  GI50: 85.1 µM (inactive)
OVCAR-5
  GI50: > 100 µM (inactive)
RXF 393
  GI50: > 100 µM (inactive)
A498
  GI50: > 100 µM (inactive)
DU-145
  GI50: > 100 µM (inactive)
HCC 2998
  GI50: > 100 µM (inactive)
SR
  GI50: > 100 µM (inactive)
SK-OV-3
  GI50: > 100 µM (inactive)
ACHN
  GI50: 56.6 µM (inactive)
A549
  GI50: 77.3 µM (inactive)
SF-539
  GI50: > 100 µM (inactive)
OVCAR-3
  GI50: 68.4 µM (inactive)
SK-MEL-5
  GI50: 23 µM (inactive)
HCT-116
  GI50: 66.5 µM (inactive)
MDA-MB-231
  GI50: > 100 µM (inactive)
MDA-MB-435
  GI50: 38.2 µM (inactive)
SW-620
  GI50: > 100 µM (inactive)
CCRF-CEM
  GI50: 43.5 µM (inactive)

## O=C(NN1C(=O)C(Cl)C1c1ccc(Cl)cc1)c1c(Cl)c(Cl)c(Cl)c(Cl)c1-c1nc2ccccc2[nH]1 (configuration not stated)
MCF7
  GI50: 12.7 µM (inactive)
OVCAR-5
  GI50: 37.2 µM (inactive)
RXF 393
  GI50: 2.23 µM (inactive)
A498
  GI50: 24.8 µM (inactive)
DU-145
  GI50: 16.4 µM (inactive)
HCC 2998
  GI50: 15.1 µM (inactive)
SR
  GI50: 16.6 µM (inactive)
SK-OV-3
  GI50: 42.7 µM (inactive)
CAKI-1
  GI50: 3.73 µM (inactive)
ACHN
  GI50: 18.9 µM (inactive)
A549
  GI50: 26.4 µM (inactive)
SF-539
  GI50: 32.4 µM (inactive)
OVCAR-3
  GI50: 27.8 µM (inactive)
SK-MEL-5
  GI50: 26.4 µM (inactive)
HCT-116
  GI50: 15.5 µM (inactive)
MDA-MB-435
  GI50: 20.1 µM (inactive)
SW-620
  GI50: 23.1 µM (inactive)
CCRF-CEM
  GI50: 8.39 µM (inactive)

## Oc1cccc(-c2cc(=S)ss2)c1
MCF7
  GI50: 12.8 µM (inactive)
OVCAR-5
  GI50: 15.9 µM (inactive)
RXF 393
  GI50: 18 µM (inactive)
HCC 2998
  GI50: 17.7 µM (inactive)
SR
  GI50: 2.76 µM (inactive)
SK-OV-3
  GI50: 20 µM (inactive)
CAKI-1
  GI50: 18.2 µM (inactive)
ACHN
  GI50: 15.7 µM (inactive)
A549
  GI50: 18.5 µM (inactive)
SF-539
  GI50: 19.5 µM (inactive)
SK-MEL-5
  GI50: 5.97 µM (inactive)
HCT-116
  GI50: 17.9 µM (inactive)
MDA-MB-231
  GI50: 14.3 µM (inactive)
MDA-MB-435
  GI50: 20.5 µM (inactive)
SW-620
  GI50: 18.5 µM (inactive)
